In US7084323B1, “Stress-protected transgenic plants” (The General Hospital Corporation, priority 1996, dated 2006):

What was measured:
Format in all cases: cell-based
[1] = tested on: stress-inducible HVA1 promoter; assay: HVA1-SGFP expression in maize leaf protoplasts treated with Ca2+ ionophores; details: 1 mM Ca2+ alone or with 100 nM ionophore in incubation medium
From the text: The role of Ca^2+ as a second messenger in multiple stress responses was also studied. The effects of increased intracellular Ca^2+ on HVA1-SGFP expression in maize leaf protoplasts using Ca^2+ ionophore was examined using standard methods as described below (Knight et al., Nature 352:524, 1991; Schroeder and Thuleau, Plant Cell 3:555, 1991; Braam, Proc. Natl. Acad. Sci. U.S.A. 89:3213, 1992; McAinsh et al., Plant Cell 4:1113, 1992; Assmann, Ann. Rev. Cell Biol. 9:345, 1993; Poovaiah and Reddy, Crit. Rev. Plant Sci. 12:185, 1993; Trewavas and Knight, Plant Mol. Biol. 26:1329, 1994; Ward and Schroeder, Plant Cell 6:669, 1994; Bethke et al., in Plant Hormones, Davies, Ed., (Kluwer Academic 1995) pp. 298–317; Bush, Ann. Rev. Plant Physiol. Plant Mol. Biol. 46:95, 1995; Monroy and Dhindsa, Plant Cell 7:32, 1995; and Knight et al., Plant Cell 8:489, 1996).
Maize leaf protoplasts transfected with HVA1-SGFP (HVA) or UBI-SGFP (UBI) were treated with 1 mM Ca^2+, 1 mM Ca^2+/100 nM A23187, and 1 mM Ca^2+/100 nM ionomycin, respectively designated “C,” “A,” and “I” in FIG. 2. UBI-SGFP was constructed by inserting the UBI promoter from pAHC27 (Christensen et al., Plant Mol. Biol. 18:675, 1992) into the SGFP vector (Chiu et al., Curr. Biol. 6:225, 1996). […] About 10^5 protoplasts from each treatment were observed using a fluorescence microscope (Chiu et al., Curr. Biol. 6:225, 1996). […]

[2] = tested on: stress-inducible HVA1 promoter; assay: HVA1-SGFP reporter expression in maize leaf protoplasts under stress/ABA treatment
From the text: Responses to multiple stress treatments were monitored using green-fluorescent protein (GFP) as a vital reporter (Chiu et al. Curr. Biol. 6:225, 1996), using a single cell maize leaf protoplast system (Sheen, EMBO J 12:3497, 1993). A chimeric gene was generated by fusing the stress-inducible CDPK HVA1 promoter (Straub et al., Plant Mol. Biol. 26:617, 1994) to a synthetic GFP sequence (HVA1-SGFP) (Chiu et al. Curr. Biol. 6:225, 1996). The barley HVA1 promoter was obtained by PCR using barley genomic DNA and two primers: 5′[…]-3′ (SEQ ID NO: 17) and 5′-[…]-3′ (SEQ ID NO: 18). The HVA1 promoter and the SGFP were fused at the ATG NcoI site. The CDPK HVA1 gene has been reported to be activated by multiple stress signals in vegetative tissues (Straub et al., Plant Mol. Biol. 26:617, 1994). […]
Maize leaf protoplasts were electroporated with the plasmid DNA carrying HVA1-SGFP and divided (10^5 cells/ml per sample) for various treatments: constant light (15 μEm^−2S^−1) at 23° C. for sixteen hours (Control), 0° C. for four hours followed by twelve hours at 23° C. […] About 10^5 protoplasts from each treatment were observed using a fluorescence microscope as described by Chiu et al. (Curr. Biol. 6:225, 1996). […] About 50% of the protoplasts, showing green/yellow fluorescence after the induction, were transiently transformed. […]

HVA1 promoter [3] = assay: HVA1-LUC expression with constitutively active or null PP2C effector in maize leaf protoplasts; details: ABA treatment
From the text: To further support the idea that ATCDPK1 and ATCDPK1a are positive regulators in plant stress signal transduction, the effect of a specific and constitutively active Arabidopsis protein phosphatase 2C (PP2C) capable of abolishing ABA responses (Leung et al., Science 264:1448, 1994; Meyer et al., Science 264:1452, 1994; Armstrong et al., Proc. Natl. Acad. Sci. USA 92:9520, 1995) was examined as follows. Maize leaf protoplasts were electroporated with HVA1-LUC alone or with the effectors as indicated. […] The experiments with the constitutively active PP2C or the null PP2C were performed with two concentrations of plasmid DNA (+, 20 μg and ++, 60 μg) (FIG. 4C). LUC and GUS assays were performed with 2% of the cell lysates as described previously by Sheen (EMBO J. 12:3497, 1993; Jefferson, Plant Mol. Biol. Rep. 5:387, 1987; and Luehrsen et al., Meth. Enz. 216:397, 1992). Relative LUC activities from duplicated samples are shown. The experiment was repeated three times with similar results (FIG. 4C).

HVA1 promoter [4] = assay: HVA1-LUC reporter co-expression with constitutive PK constructs in maize leaf protoplasts; details: co-electroporated constitutive (truncated) PK construct, without ABA
Method: For quantitating the effect of various constitutive PKs on stress signaling, another chimeric gene with the HVA1 promoter and the luciferase coding sequence (Leuhrsen et al., Meth. Enz. 216:397, 1992) (HVA1-LUC) was generated. Co-expression experiments were performed by electroporating the reporter (HVA1-LUC) and the effector (35SC4PSK-PK-HA) plasmids together into maize leaf protoplasts as follows.
Maize leaf protoplasts were transfected with HVA1-LUC alone and incubated without (FIG. 3E, “C”) or with 100 μM ABA (FIG. 3E, “A”). HVA1-LUC was also co-electroporated with the PK constructs (1–8) shown in FIG. 3C and FIG. 3D, and incubated without ABA (FIG. 3E, “1–8”). Relative LUC activities from duplicated samples are shown. About 2% of the cell lysates were used for LUC (Luehrsen et al., Meth. Enz. 216:397, 1992) and GUS assays (Sheen, EMBO J. 12:3497, 1993; and Jefferson, Plant Mol. Biol. Rep. 5:387, 1987). The experiment was repeated three times with similar results.

## CNc1ccc2oc(C[C@H]3O[C@@]4(CC[C@H]3C)O[C@H]([C@H](C)C(=O)c3ccc[nH]3)[C@H](C)C[C@H]4C)nc2c1C(=O)O [A23187]
[1]
  expression of HVA1-GFP: significantly increased

## CC1=CC(=O)CC(C)(C)[C@@]1(O)/C=C/C(C)=C\C(=O)O [ABA, abscisic acid]
[2]; 1 μM ABA (data not shown)
  GFP expression from HVA1-SGFP: visible
[2]; 100 μM ABA for sixteen hours, fluorescence microscopy
  expression of GFP from HVA1-SGFP: enhanced
HVA1 promoter [3]
  HVA1-LUC expression: activated

## C[C@H](CCC(=O)O)C[C@H](C)C[C@H](C)C(=O)/C=C(\O)[C@H](C)C[C@H](C)C/C=C/[C@@H](C)[C@@H](O)[C@@H](C)[C@@H](O)C[C@@H]1CC[C@@](C)([C@H]2CC[C@@](C)([C@@H](C)O)O2)O1 [ionomycin]
[1]
  expression of HVA1-GFP: significantly increased

B1: ATCDPK1a: truncated constitutively active Arabidopsis CDPK PK domain, SEQ ID NO: 2 (protein, listed as Arabidopsis thaliana)
chain: MANQTQISDKYILGRELGRGEFGITYLCTDRETREALACKSISKRKLRTAVDVEDVRREVTIMSTLPEHPNVVKLKATYEDNETVHLVMELCEGGELFGRIVARGHYTERAAATVARTIAEVVRMCHVNGVMHRDLKPENFLFANKKENSALKAIDFGLSVLFKPGERFTEIVGSPYYMAPEVLKRNYGPEVDVWSAGVILYILLCGVPPFWAETEQGVALAILRGVLDFKRDPWSQISESAKSLVKQMLEPDSTKRLTAQQVLDHPWIQNAKK
HVA1 promoter [4]
  LUC expression controlled by the HVA1 promoter: specifically activate
